According to the supplement of paper PMC10307832:

Assays:
Experiment in all cases: relative viability (nuclei count vs DMSO), 5 days (fraction); higher = more cells survive
[1] = compound: CC[C@@H](C)CNCC(=O)N1CCC2=C([C@@H]1COC3=CC=CC(=C3)C)C=CS2 [RU-SKI 43] + CCNC(=O)c1noc(-c2cc(C(C)C)c(O)cc2O)c1-c1ccc(CN2CCOCC2)cc1 [Luminespib] (partner 0.01 µM)
Procedure, shortened: (§1)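 Relative viability divides the nuclei count in treated wells by that in vehicle wells. Lung cancer cell lines were seeded in 1536-well plates, dosed by pin tool the next day, and fixed and stained after 5 days in one step with final 0.05% Triton X-100, 1% formaldehyde and 1 ug/ml Hoechst. Dosing was a single drug or a fixed anchor-drug dose plus five library-drug doses (not always all listed) in √10 steps, and values are medians of duplicate plates imaged at 4×.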

[2] = compound: CCc1c2c(nc3ccc(OC(=O)N4CCC(N5CCCCC5)CC4)cc13)-c1cc3c(c(=O)n1C2)COC(=O)[C@]3(O)CC [Irinotecan] + Cc1cc(Nc2cc(N3CCN(C)CC3)nc(Sc3ccc(NC(=O)C4CC4)cc3)n2)n[nH]1 [Tozasertib] (partner 0.1 µM)
Procedure, shortened: as §1

[3] = compound: CCc1c2c(nc3ccc(OC(=O)N4CCC(N5CCCCC5)CC4)cc13)-c1cc3c(c(=O)n1C2)COC(=O)[C@]3(O)CC [Irinotecan] + N=C(N)NC(=N)NCCc1ccccc1 [Phenformin] (partner 250 µM)
Procedure, shortened: as §1

[4] = compound: CCc1c2c(nc3ccc(OC(=O)N4CCC(N5CCCCC5)CC4)cc13)-c1cc3c(c(=O)n1C2)COC(=O)[C@]3(O)CC [Irinotecan] + NC(=O)Nc1cc(-c2cccc(F)c2)sc1C(=O)N[C@H]1CCCNC1 [AZD7762] (partner 0.2 µM)
Procedure, shortened: as §1

Cell Line	relative viability ([1]; first compound 0.1 µM)	relative viability ([1]; first compound 0.3162 µM)	relative viability ([1]; first compound 1 µM)	relative viability ([1]; first compound 3.162 µM)	relative viability ([1]; first compound 10 µM)	relative viability ([2]; first compound 0.6325 µM)	relative viability ([2]; first compound 2 µM)	relative viability ([2]; first compound 6.325 µM)	relative viability ([2]; first compound 20 µM)	relative viability ([3]; first compound 0.6325 µM)	relative viability ([3]; first compound 2 µM)	relative viability ([3]; first compound 6.325 µM)	relative viability ([3]; first compound 20 µM)	relative viability ([4]; first compound 0.6325 µM)	relative viability ([4]; first compound 2 µM)	relative viability ([4]; first compound 6.325 µM)	relative viability ([4]; first compound 20 µM)
NCI-H358	0.59	0.292	0.252	0.389	0.307	0.104	0.141	0.145	0.128	0.273	0.278	0.125	0.0851	0.38	0.508	0.339	0.349
NCI-H441	0.285	0.324	0.436	0.316	0.375	0.497	0.443	0.374	0.295	0.566	0.759	0.299	0.224	0.964	0.411	0.277	0.288
NCI-H460	0.035	0.0298	0.0295	0.0325	0.0355	0.374	0.186	0.0861	0.0393	0.21	0.272	0.0796	0.0368	–	0.202	0.0963	0.0901
NCI-H522	1.28	1.14	1.14	1.05	1.17	0.506	0.502	0.526	0.486	0.578	0.567	0.514	0.564	0.635	0.746	0.571	0.555
NCI-H596	0.89	1.05	1.06	1.12	0.744	0.798	0.878	0.632	0.624	0.699	0.83	0.784	0.745	1.07	1.15	0.88	0.913
NCI-H647	0.163	0.325	0.236	0.123	0.221	0.24	0.294	0.151	0.0868	0.463	0.644	0.161	0.104	0.294	0.273	0.131	0.2
NCI-H650	0.748	0.861	0.901	0.852	0.727	0.703	0.553	0.202	0.181	0.36	0.409	0.239	0.248	0.722	1.09	0.309	0.217
NCI-H727	0.365	0.393	0.26	0.362	0.664	0.524	0.551	0.47	0.507	0.464	0.611	0.524	0.413	0.462	0.575	0.406	0.342
NCI-H838	0.237	0.241	0.288	0.237	0.232	0.283	0.491	0.23	0.242	0.661	0.587	0.312	0.202	0.887	0.787	0.749	0.645
NCI-H1355	0.577	0.822	0.869	0.76	0.741	–	0.486	0.311	0.227	–	0.46	0.278	0.248	–	0.68	0.368	0.257
NCI-H1395	0.733	0.899	0.862	0.649	0.635	0.607	0.716	0.594	0.494	0.403	0.493	0.389	0.399	–	0.441	0.424	0.233
NCI-H1437	1.07	1.26	1.15	1.1	1.04	0.339	0.387	0.312	0.218	0.296	0.306	0.163	0.144	0.891	0.557	0.261	0.174
NCI-H1651	0.697	0.9	0.915	0.807	0.658	0.532	0.575	0.255	0.183	0.259	0.34	0.242	0.14	0.234	0.368	0.172	0.15
NCI-H1666	0.941	1.03	1.03	0.942	0.833	0.552	0.543	0.569	0.26	0.511	0.529	0.425	0.424	0.815	0.687	0.552	0.503
NCI-H1734	0.177	0.17	0.223	0.192	0.168	–	0.279	0.198	0.33	–	0.357	0.244	0.17	–	0.399	0.185	0.139
NCI-H1755	0.5	0.3	0.515	0.472	0.301	0.469	0.463	0.316	0.405	0.498	0.603	0.296	0.307	0.53	0.47	0.345	0.327
NCI-H1793	0.167	0.154	0.205	0.154	0.183	–	0.345	0.217	0.219	–	0.347	0.263	0.185	–	0.387	0.232	0.217

Cell Line	relative viability ([1]; first compound 0.1 µM)	relative viability ([1]; first compound 0.3162 µM)	relative viability ([1]; first compound 1 µM)	relative viability ([1]; first compound 3.162 µM)	relative viability ([1]; first compound 10 µM)	relative viability ([2]; first compound 0.6325 µM)	relative viability ([2]; first compound 2 µM)	relative viability ([2]; first compound 6.325 µM)	relative viability ([2]; first compound 20 µM)	relative viability ([3]; first compound 0.6325 µM)	relative viability ([3]; first compound 2 µM)	relative viability ([3]; first compound 6.325 µM)	relative viability ([3]; first compound 20 µM)	relative viability ([4]; first compound 0.6325 µM)	relative viability ([4]; first compound 2 µM)	relative viability ([4]; first compound 6.325 µM)	relative viability ([4]; first compound 20 µM)
NCI-H1915	0.837	1.44	1.02	0.869	0.895	0.312	0.27	0.192	0.173	0.268	0.27	0.2	0.195	0.387	0.346	0.165	0.127
NCI-H1944	0.643	0.751	0.832	0.819	0.662	0.222	0.202	0.167	0.135	0.191	0.187	0.132	0.132	0.414	0.276	0.21	0.153
NCI-H1975	0.199	0.172	0.229	0.157	0.25	0.929	0.726	0.354	0.199	0.407	0.448	0.296	0.194	0.826	0.7	0.527	0.322
NCI-H1993	0.714	0.813	0.982	1.02	0.825	0.582	0.71	0.639	0.644	0.536	0.503	0.531	0.551	–	0.681	0.508	0.603
NCI-H2085	0.398	0.481	0.591	0.431	0.407	0.843	0.726	0.505	0.51	0.662	0.702	0.559	0.478	0.771	0.942	0.957	0.672
NCI-H2087	0.158	0.173	0.193	0.145	0.131	0.184	0.239	0.36	0.192	0.218	0.341	0.192	0.176	0.586	0.387	0.242	0.226
NCI-H2126	0.837	1.09	1.11	0.959	0.891	–	0.813	0.46	0.206	–	0.53	0.355	0.285	0.618	0.889	0.65	0.302
NCI-H2170	0.751	0.73	0.73	0.755	0.67	0.801	0.701	0.236	0.181	0.389	0.424	0.202	0.174	0.649	0.562	0.173	0.133
NCI-H2342	0.686	0.667	0.713	0.62	0.617	0.488	0.528	0.445	0.372	0.614	0.59	0.554	0.418	0.516	0.514	0.489	0.462
NCI-H2347	0.443	0.717	0.639	0.357	0.35	0.441	0.502	0.546	0.441	0.284	0.263	0.298	0.246	0.609	0.654	0.48	0.372
NCI-H2405	0.639	0.474	0.543	0.736	0.486	–	0.605	0.354	0.246	–	0.392	0.309	0.279	–	0.765	0.298	0.197
NCI-H3122	0.0907	0.0845	0.103	0.0966	0.0897	0.461	0.339	0.2	0.0585	0.364	0.341	0.235	0.088	0.941	0.34	0.145	0.139
PC-3 [JPC-3]	0.738	0.633	0.795	0.615	0.537	0.78	0.81	0.363	0.314	0.424	0.472	0.318	0.349	0.465	0.864	0.463	0.398
PC-14	0.146	0.143	0.126	0.157	0.159	–	0.51	0.19	0.174	–	0.661	0.242	0.155	0.306	0.431	0.232	0.199
RERF-LC-KJ	1.25	1.01	1.44	1.3	1	0.444	0.438	0.358	0.179	0.47	0.325	0.345	0.246	0.55	1.03	0.568	0.277
SW 900	0.196	0.188	0.195	0.169	0.151	0.379	0.528	0.439	0.485	0.425	0.664	0.447	0.37	–	0.587	0.472	0.404
